{
  "source": "patent US4401656A",
  "about": "“N-Substituted dimeric cyclopeptide derivatives” (Ayerst, McKenna & Harrison, Ltd., priority 1980, dated 1983)",
  "key": {"Serratia marcescens": {"test_system": "Serratia marcescens", "assay": "serial broth dilution, growth inhibition", "assay_type": "cell-based", "conditions": "nutrient broth, incubated at 37° C. for 2 days", "procedure": "(§1) Grove and W. A. Randall in \"Assay Methods of Antibiotics\", Med. Encycl. Inc., New York, 1955. […] 289.\n(§2) For example, by employing a test like the serial broth dilution, see Grove and Randall, cited above, in which dilutions of the compounds of this invention in nutrient broth are inoculated with the microorganisms or fungi, described above, incubated at 37° C. for 2 days, respectively, and examined for the presence of growth, it may be shown that the preferred compounds N'N'-dicyclohexyl-α,α'-diisopropyl-2,5,8,11,14,17-hexaoxo-1,4,7,10,13,16-hexaazacyclooctadecane-1,10-diacetamide, isomer L, (Example 1), N'N'-dicyclohexyl-α,α'-diisopropyl-2,5,8,11,14,17-hexaoxo-1,4,7,10,13,16-hexaazacyclooctadecane-1,10-diacetamide, isomer M, (Example 1), and α,α'-diphenyl-N'N'-dicyclohexyl-2,5,8,11,14,17-hexaoxo-1,4,7,10,13,16-hexaazacyclooctadecane-1,10-diacetamide, isomer L, (Example 1) are able to inhibit growth totally in this system of Klebsiella pneumoniae and Serratia marcescens at a concentration of 100 mcg/ml."}, "Klebsiella pneumoniae": {"test_system": "Klebsiella pneumoniae", "assay": "serial broth dilution, growth inhibition", "assay_type": "cell-based", "conditions": "nutrient broth, incubated at 37° C. for 2 days", "procedure": "as §1, §2"}},
  "data": [
    {"smiles": "CC(C)C(C(=O)NC1CCCCC1)N1CC(=O)NCC(=O)NCC(=O)N(C(C(=O)NC2CCCCC2)C(C)C)CC(=O)NCC(=O)NCC1=O", "note": "(stereo not drawn) [N,N'-Dicyclohexyl-α,α'-diisopropyl-2,5,8,11,14,17-hexaoxo-1,4,7,10,13,16-hexaazacyclooctadecane-1,10-diacetamide]", "values": [
      {"measurement": "concentration able to inhibit growth totally", "setting": "Serratia marcescens", "result": 100, "unit": "µg/mL"},
      {"measurement": "concentration able to inhibit growth totally", "setting": "Klebsiella pneumoniae", "result": 100, "unit": "µg/mL"}
    ]},
    {"smiles": "O=C1CNC(=O)CN(C(C(=O)NC2CCCCC2)c2ccccc2)C(=O)CNC(=O)CNC(=O)CN(C(C(=O)NC2CCCCC2)c2ccccc2)C(=O)CN1", "note": "(stereo not drawn) [α,α'-diphenyl-N,N'-dicyclohexyl-2,5,8,11,14,17-hexaoxo-1,4,7,10,13,16-hexaazacyclooctadecane-1,10-diacetamide]", "values": [
      {"measurement": "concentration able to inhibit growth totally", "setting": "Serratia marcescens", "result": 100, "unit": "µg/mL"},
      {"measurement": "concentration able to inhibit growth totally", "setting": "Klebsiella pneumoniae", "result": 100, "unit": "µg/mL"}
    ]}
  ]
}
